# Structures can show the parent of a compound that is named as a salt.
# How the values were obtained:
# [1] = system: Wister male rats under a high fat and high cholesterol diet; test: Lipid lowering and body weight effects of (14R,13S)-CRDL hydrochloride salt in Wister rats; type: in vivo
# Protocol: Male Wister rats were used as another animal model to examine the in vivo effects of (14R,13S)-CRDL in plasma lipid levels.
# In one experiment, 18 Wister male rats under a high fat and high cholesterol diet were divided into 2 groups. One group was given (14R,13S)-CRDL hydrochloride salt orally at a daily dose of 75 mg/kg by an orogastric tube for 4 weeks, and the control group received daily treatment of equal amount of vehicle (0.1 M sodium phosphate, pH 3.5). Serum lipid levels were measured weekly.
# At the end of treatment, Rats were sacrificed and blood and sera were collected to measure several critical parameters for liver function and kidney function. […] Kidney function and blood glucose level were not changed by the treatment (FIG. 11E).
# The food intake and body weight gains were measured every week during the 4-week treatment period. […] In the first week, the amount of food consumed was decreased in CRDL-treated group. […] The ability of CRDL to activate AMPK signaling pathway to increase energy expenditure and to reduce fat accumulation likely contributes to this weight reducing effect.
# [2] = system: LDLR mRNA expression in HepG2 cells; test: LDLR mRNA expression in HepG2 cells, quantitative real-time RT-PCR; type: cell-based, Human; conditions: 24 hours; for Activity on LDLR mRNA expression (Fold of control): dose less than or equal to 10 μM
# Protocol: In yet another experiment, HepG2 cells were treated with various compounds for 24 hours at the indicated doses. Total RNA was isolated and 2 μg was used to generate cDNA in a reaction containing random primers and M-MLV at 37° C. for 1 hour in a volume of […] Real-time PCR was performed on the cDNA using MCEP REALPLEX 2 SYSTEM (Eppendorf) and Universal MasterMix (Applied Biosystems). Human LDLR and GAPDH Pre-Developed TaqMan Assay Reagents (Applied Biosystems) were used to assess the levels of mRNA expressions in HepG2. The levels of LDLR mRNA were normalized to that of GAPDH. Each RNA samples was assayed in triplicate. The abundance of LDLR mRNA in untreated cells was defined as 1, and the amounts of LDLR mRNA from compound-treated cells were plotted relative to that value in FIG. 13. The data shown are mean±s.d.
# Activities of some compounds of Formulas I, II, III, and IV on LDLR mRNA expression were determined. HepG2 cells were treated with new compounds individually at a dose less than or equal to 10 μM for 24 hours. Total RNA was harvested for quantitative real-time RT-PCR analysis using the method described in Example 16B. […] In these experiments, berberine chloride was included for comparison.
# Quantitative real-time RT-PCR was conducted, and triplicate was assayed in each RNA sample. The data are mean value of triplicates.
# Total RNA was harvested for quantitative real-time RT-PCR analysis using method described in Examples 16B.
# [3] = system: LDLR ligand uptake activity in HepG2 cells; test: DiI-LDL uptake (LDLR ligand uptake activity) in HepG2 cells; type: cell-based, Human; conditions: 20 hours; further: key: +: slightly increased fluorescent intensity over control; ++: modestly increased fluorescent intensity over control; +++: strongly increased fluorescent intensity over control
# Protocol: HepG2 cells (2×10^5 cells/well) in 24-well culture plates were treated with various compounds at indicated concentrations for 20 hours. The fluorescent 1,1′-dioctadecyl-3,3,3′,3′-tetramethylindocarbocyanin perchlorate (DiI-LDL) (Biomedical Technologies, Stoughton, Mass.) at a concentration of 2 μg/mL was added to cells at the end of treatment. After 4 hours, the medium was removed, cells were washed with cold PBS, and were examined immediately under a fluorescent microscope (Nikon) at 200× amplification. The fluorescent intensity in compound-treated cells was compared to that in untreated control cells. […] In these experiments berberine chloride was used for comparison.
# [4] = system: LDLR mRNA expression in HepG2 cells; test: LDLR mRNA expression in HepG2 cells, semi-quantitative RT-PCR; type: cell-based, Human; conditions: 8 hours, indicated doses, corrected by GAPDH mRNA (FIG. 3)
# Protocol: HepG2 cells obtained from American Tissue Culture Collection (Manassas, Va., USA) were seeded in 6-well culture plates at a density of 0.8×10^6 cells/well cultured in EMEM containing 0.5% FBS and were treated with each purified compound at indicated doses for 8 hours. Total RNA was isolated, and 2 μg per sample was reverse transcribed with random primers using M-MLV (Promega) at 37° C. for 1 hour. PCR was carried out at 94° C. for 30 sec, 60° C. for 30 sec, and 72° C. for 30 sec with initial activation of the enzyme at 94° C. for 1 minute. Thirty cycles were performed for LDLR and GAPDH. PCR was performed using primers HLDLR-up and HLDLR-lo for LDLR and primers HGAPDH-up and HGAPDH-lo for GAPDH. The PCR products were separated on a 1% agarose gel and the band intensity was quantitated. LDLR mRNA levels were corrected by measuring GAPDH mRNA levels.
# After the treatment, a portion of cells was harvested for total RNA, and another portion of cells was used for TG measurement. The LDLR mRNA levels were assessed by semi quantitative RT-PCR, and the cellular TG content was determined as described above.
# [5] = Stability of compound 69 under cell culture conditions (LC-MS of medium); type: in vitro ADME; conditions: HepG2 culture medium, 20 μM
# Protocol: HepG2 cells were cultured in 6-well cell culture plate in EMEM containing 0.5% FBS overnight. Compound 69+ was added to the culture medium to a final concentration of 20 μM. Medium was collected at 0 (control), 4, 8, or 24 hours after the compound addition.
# The collected media were analyzed by LC-MS on a Thermo Fisher Scientific Surveyor HPLC system and LCQ ion trap MS with electrospray ionization source. A 50×2.1 mm Hypersil Gold C18 3 um column was used with a flow rate of 200 uL/min. The method conditions were 98% A (0.1% formic acid in water)/2% B (0.1% formic acid in acetonitrile) then a gradient to 95% B in 10 minutes. The injection volume was 10 uL.
# [6] = system: hypercholesterolemic hamsters; test: In vivo lipid lowering of (14R)-THP in hamsters on high cholesterol diet; set-up: species or system Golden Syrian male hamsters; conditions: 12 mg/kg daily i.p., 34 days
# Source text: To determine whether the induction of hepatic LDLR expression by corydalis-derived compounds would result in total cholesterol (TC) and LDL-cholesterol (LDL-c) reductions in plasma, hypercholesterolemic hamsters were used as an animal model. In one experiment, 10 Golden Syrian male hamsters under a high cholesterol (HC) diet were divided into 2 groups.
# [7] = (14R,13S)-CRDL hydrochloride salt orally 75 mg/kg daily, 4 weeks
# [8] = end of 4-week treatment, 75 mg/kg daily orally
# [9] = HC diet, compared to untreated control group
compound,measurement,setting,value
"COc1cc2c(cc1OC)[C@H]1[C@@H](C)c3ccc(OC)c(OC)c3CN1CC2 [Compound 6, (13S,13aR)-2,3,9,10-tetramethoxy-13-methyl-5,6,7,8,13,13a-hexahydroiso-quinolino[2,1-b]isoquinoline hydrochloride]","LDL-c level, % of control",[1]; [7],25.6%
same,"LDL-c level, % of day 0",[1]; [7],22.4%
same,"TC, % compared to the control group",[1]; [7],33.8%
same,"TC, % of the pretreatment level",[1]; [7],33.0%
same,"TG level, % of the control",[1]; [7],29%
same,"TG level, % of the pretreatment level (day 0)",[1]; [7],27%
same,blood glucose level,[1]; [8],not changed
same,"kidney function (BUN, CREA)",[1]; [8],not changed
"CCOC(=O)Oc1c(OC)ccc2c1CN1CCc3cc4c(cc3C1C2)OCO4 (stereo not shown) [Compound 48, 10-methoxy-5,6,7,8,13,13a-hexahydro-2H-1,3-dioxolano[4,5-g]isoquinolino[3,2-a]isoquinolin-9-yl ethoxyformate]",Activity on LDLR mRNA expression (Fold of control),[2],1.45 ± 0.15 Fold of control
(+)-corlumidin [(+)-CLMD],Activity on DiI-LDL uptake,"[3]; B, compound dose ≦ 40 μM",+
same,LDLR mRNA expression,[4],potent and dose-dependent effects
"CN1CCc2cc3c(cc2[C@H]1[C@@H]1O[C@H](O)c2c1ccc1c2OCO1)OCO3 [d-(+)-EGN, (+)-egenine]",Activity on DiI-LDL uptake,"[3]; A, compound dose ≦ 10 μM",+
"COc1ccc2c(c1OC(=O)N(C)C)CN1CCc3cc4c(cc3C1C2)OCO4 (stereo not shown) [Compound 43, (10-methoxy (5,6,7,8,13,13a-hexahydro-2H-1,3-dioxolano[4,5-g]isoquinolino[3,2-a]isoquinolin-9-yloxy))-N,N-dimethylcarboxamide]",Activity on DiI-LDL uptake,"[3]; A, compound dose ≦ 10 μM",++
same,Activity on LDLR mRNA expression (Fold of control),[2],1.95 ± 0.18 Fold of control
"COc1cc(NC(=O)Oc2c(OC)ccc3c2CN2CCc4cc5c(cc4C2C3)OCO5)cc(OC)c1 (stereo not shown) [Compound 45, N-(3,5-dimethoxyphenyl) (10-methoxy (5,6,7,8,13,13a-hexahydro-2H-1,3-dioxolano[4,5-g]isoquinolino[3,2-a]isoquinolin-9-yloxy)) carboxamide]",Activity on DiI-LDL uptake,"[3]; A, compound dose ≦ 10 μM",++
same,Activity on LDLR mRNA expression (Fold of control),[2],2.09 ± 0.11 Fold of control
"COc1ccc2c(c1OC(=O)Nc1ccc(OC(F)(F)F)cc1)CN1CCc3cc4c(cc3C1C2)OCO4 (stereo not shown) [Compound 44, (10-methoxy (5,6,7,8,13,13a-hexahydro-2H-1,3-dioxolano[4,5-g]isoquinolino[3,2-a]isoquinolin-9-yloxy))-N-[4-(trifluoromethoxy)phenyl]car-boxamide]",Activity on DiI-LDL uptake,"[3]; A, compound dose ≦ 10 μM",++
same,Activity on LDLR mRNA expression (Fold of control),[2],2.20 ± 0.06 Fold of control
"COc1ccc2c(c1OC(=O)Nc1cccc(C)c1)CN1CCc3cc4c(cc3C1C2)OCO4 (stereo not shown) [Compound 46, (10-methoxy (5,6,7,8,13,13a-hexahydro-2H-1,3-dioxolano[4,5-g]isoquinolino[3,2-a]isoquinolin-9-yloxy))-N-(3-methylphenyl) carboxamide]",Activity on DiI-LDL uptake,"[3]; A, compound dose ≦ 10 μM",++
same,Activity on LDLR mRNA expression (Fold of control),[2],1.80 ± 0.16 Fold of control
"COc1ccc2c(c1O)CN1CCc3cc4c(cc3C1C2)OCO4 (stereo not shown) [Compound 34, 10-methoxy-5,6,7,8,13,13a-hexahydro-2H-1,3-dioxolano[4,5-g]isoquinolino[3,2-a]isoquinolin-9-ol]",Activity on DiI-LDL uptake,"[3]; A, compound dose ≦ 10 μM",++
same,Activity on LDLR mRNA expression (Fold of control),[2],1.76 ± 0.17 Fold of control
"COc1ccc2c(c1OC(=O)Nc1ccccc1)CN1CCc3cc4c(cc3C1C2)OCO4 (stereo not shown) [Compound 61, (10-methoxy (5,6,7,8,13,13a-hexahydro-2H-1,3-dioxolano[4,5-g]isoquinolino[3,2-a]isoquinolin-9-yloxy))-N-benzamide]",Activity on LDLR mRNA expression (Fold of control),[2],1.33 ± 0.53 Fold of control
"COc1ccc2c(c1OS(=O)(=O)c1ccccc1)CN1CCc3cc4c(cc3C1C2)OCO4 (stereo not shown) [Compound 69, 9-benzene-sulfonyloxy-10-methoxy-5,8,13,13a-tetrahydro-6H-[1,3]dioxolo[4,5-g]isoquino[3,2-a] isoquinoline]",stability under cell culture conditions,[5]; up to 24 hours,fairly stable
same,Peak Area m/z 466.1,[5]; 0 hours (control),2.38e8
same,Peak Area m/z 466.1,[5]; 4 hours,9.67e7
same,Peak Area m/z 466.1,[5]; 8 hours,9.22e7
same,Peak Area m/z 466.1,[5]; 24 hours,7.03e7
"COc1ccc2c(c1OC(=O)NC(C)C)CN1CCc3cc4c(cc3C1C2)OCO4 (stereo not shown) [Compound 41, (10-methoxy (5,6,7,8,13,13a-hexahydro-2H-1,3-dioxolano[4,5-g]isoquinolino[3,2-a]isoquinolin-9-yloxy))-N-(methylethyl) carboxamide]",Activity on DiI-LDL uptake,"[3]; A, compound dose ≦ 10 μM",++
same,Activity on LDLR mRNA expression (Fold of control),[2],1.60 ± 0.03 Fold of control
"COc1cc2c(cc1O)CCN1Cc3c(ccc(OC)c3OC)CC21 (stereo not drawn) [14R-(+)-CRPM, 14R-(+)-corypalmine]",Activity on DiI-LDL uptake,"[3]; A, compound dose ≦ 10 μM",++
same,LDLR mRNA expression,[4],potent and dose-dependent effects
"COc1cc2c(cc1OC)[C@H]1Cc3ccc(OC)c(OC)c3CN1CC2 [14R-(+)-THP, 14R-(+)-tetrahydropalmatine]",adverse effects during the treatment period,[6],No adverse effects were observed
same,reduction of plasma TC,[6]; [9],31.6%
same,reduction of plasma TG,[6]; [9],35.93%
same,reduction of plasma non-HDL-c,[6]; [9],35.95%
same,gains of body weight during the treatment period,[6]; vs control group,very similar
same,Activity on DiI-LDL uptake,"[3]; B, compound dose ≦ 40 μM",++
same,LDLR mRNA expression,[4],potent and dose-dependent effects
same,"LDLR mRNA expression, combined with statins",[2]; added to low dose simvastatin or fluvastatin (FIG. 17),further improved the stimulatory effects of statins
